This is an account of results in patent US20160008333A1, “PROPHYLACTIC OR THERAPEUTIC AGENT FOR POSTERIOR OCULAR DISEASE CONTAINING TETRAHYDROPYRANYLAMINOCYCLOPENTYLCARBONYLTETRAHYDROPYRIDOPYRIDINE DERIVATIVE AS EFFECTIVE INGREDIENT” (SANTEN PHARMACEUTICAL CO., LTD., priority 2013, published 2016).

What all share (type): in vivo
The subject of assay [1] is thrombin-induced retinal vascular hyperpermeability. The assay can be described thus: Rat model of thrombin-induced retinal vascular hyperpermeability (vitreous protein concentration).
Assay [2] has as its system TNFα-induced retinal vascular hyperpermeability. The assay can be described thus: Rat model of TNFα-induced retinal vascular hyperpermeability, oral administration. The text has this:
TNFα is a cytokine which has been reported to increase its expression in proliferative diabetic retinopathy or at the vitreous body of retinal vein occlusion (Eye 2006; 20: 1366-1369, Jpn. J. Ophthalmol. 2011; 55: 256-63), and in a streptozocin-induced diabetes model, it has been reported that it participates in onset and progress of diabetic retinopathy through permeability enhancement or histopathological alteration of retinal vessel (Mol. Vis. 2009; 15: 1418-1428). Thus, by using a rat model of TNFα-induced retinal vascular hyperpermeability, usefulness of Compound A, the diastereomer I of Compound A and the diastereomer II of Compound A were evaluated.
A rat was intramuscularly administered 1 ml/kg of a mixed solution (7:1) comprising a 5% (W/V) ketamine hydrochloride injection solution and a 2% xylazine hydrochloride injection solution to perform general anesthesia, and a 0.5% (W/V) tropicamide-0.5% phenylephrine hydrochloride eye drop was dropped into eyes to perform mydriasis. Thereafter, 5 μL of TNFα (10 μg/ml) was injected into the vitreous body by using a 32G needle so as not to damage the crystalline lens and the retina. A rat of normal group was administered PBS (phosphate buffer) in place of the TNFα.
Compound A was dissolved in a 1% (W/V) methyl cellulose solution (prepared by dissolving methyl cellulose in purified water) so that it became 2 and 20 mg/ml to prepare a Compound A solution. The Compound A solution was orally administered with a dose of 10 and 100 mg/kg at 30 minutes before, 6 and 20 hours after administration of TNFα in the vitreous body. The diastereomer I of Compound A and the diastereomer II of Compound A were also similarly prepared and administered. Incidentally, the base administered group was similarly administered a 1% (W/V) methyl cellulose solution.
In addition, RS-504393 which is a CCR2 receptor antagonist was used those purchased from Tocris Bioscience Inc., and orally administered in the same manner with a dose of 3 and 30 mg/kg.
After 24 hours from administration of TNFα in the vitreous body, the rat was euthanized by exsanguination, and then, the eyeballs of the rat were excised so as not to mix with a blood. After extraction of the eyeballs, the vitreous body was rapidly collected by making a tiny cut at around the optic papilla using a surgical scalpel. The collected vitreous body was optionally diluted by purified water, and the protein concentration was measured by the Bradford method. The protein concentration of the vitreous body thus measured was used as an index of the retinal vascular permeability. Thereafter, according to Numerical formula 4, a suppressing rate (%) of the evaluated drug against the retinal vascular hyperpermeability caused by TNFα was calculated. […]

For assay [3] the test system is unchanged. The assay can be described thus: Rat model of TNFα-induced retinal vascular hyperpermeability, intravitreal administration. The settings on record: 100 μg/eye intravitreally immediately after intravitreal TNFα; vitreous protein at 24 h. On the procedure:
To investigate an effectiveness of Compound A by topical administration, the effect of intravitreal administration of Compound A on a rat model of TNFα-induced retinal vascular hyperpermeability was investigated. A model was prepared in the same manner as in Pharmacological test 3. Compound A was dissolved in a mixed solution of dimethylsulfoxide and PLA0020 with a ratio of 4: 1 so that it became 40 mg/ml to prepare a solution of Compound A. Immediately after intravitreal administration of TNFα, the solution of Compound A was intravitreally administered with a dose of 100 μg/eyes. Incidentally, to the base administered group, a mixed solution of dimethylsulfoxide and PLA0020 with a ratio of 4:1 was similarly administered. After 24 hours from intravitreal administration of TNFα, the rat was euthanized by exsanguination, and then, the eyeballs of the rat were excised so as not to mix with a blood. […] The collected vitreous body was optionally diluted by purified water, and the protein concentration was measured by the Bradford method. The protein concentration of the vitreous body thus measured was used as an index of the retinal vascular permeability. Thereafter, according to Numerical formula 4, a suppressing rate (%) of the evaluated drug against the retinal vascular hyperpermeability caused by TNFα was calculated. […]

In assay [4] the test system is choroidal neovascularization. In words: Krypton laser-induced rat choroidal neovascularization model (fluorescein fundus angiography). The settings on record: evaluated 7th day after photocoagulation. The procedure:
By using a laser-induced rat choroidal neovascularization model (Invest. Ophthalmol. Vis. Sci., 40(2), 459-466 (1999)), usefulness of the compounds of the present invention was evaluated.
A rat was intramuscularly administered 1 ml/kg of a mixed solution (7:1) comprising a 5% (W/V) ketamine hydrochloride injection solution and a 2% xylazine hydrochloride injection solution to perform general anesthesia, and after a 0.5% (W/V) tropicamide-0.5% phenylephrine hydrochloride eye drop was dropped into eyes to perform mydriasis, photocoagulation was carried out by a krypton laser photocoagulation apparatus. The photocoagulation was carried out at the posterior part of eye ground, while avoiding thick retinal blood vessels, by focusing on the deep retina with eight spots per an eye in a scattered state (coagulation conditions: spot size 100 μm, output 100 mW, coagulation time 0.1 second). After the photocoagulation, the ocular fundus was photographed to confirm laser irradiated sites.
Compound A was mixed with a 1% (W/V) methyl cellulose solution (prepared by dissolving methyl cellulose in purified water) so that it became 0.4, 1.2, 4 and 12 mg/ml, and an administration solution containing Compound A was orally administered twice a day for 7 days from the surgery day including the surgery day of the photocoagulation with a dose of 2, 6, 20 and 60 mg/kg. Incidentally, to the base administered group was similarly administered a 1% (W/V) methyl cellulose solution.
At the 7th day after the photocoagulation, a rat was intramuscularly administered 1 ml/kg of a mixed solution (7:1) comprising a 5% (W/V) ketamine hydrochloride injection solution and a 2% xylazine hydrochloride injection solution to perform general anesthesia, and a 0.5% (W/V) tropicamide-0.5% phenylephrine hydrochloride eye drop was dropped into eyes to perform mydriasis, 0.1 ml of a 10% fluorescein solution was injected into a vein of penis to carry out fluorescein fundus angiography. A spot from which no leakage of fluorescence was admitted by the fluorescein fundus angiography was judged as negative (no neovascularization), and a spot from which leakage of fluorescence was admitted was judged as positive. In addition, when the photocoagulation portions from which a slight leakage of fluorescence was admitted were present two portions, it was judged as positive (neovascularization exists). Thereafter, according to Numerical formula 1, a rate of incidence of choroidal neovascularization (%) was calculated from a number of positive spot(s) to the eight spots to which the laser was irradiated, and a suppressing rate (%) of the evaluated drug was calculated in accordance with Numerical formula 2. Incidentally, a number of the samples of each administered group is 7 or 8. […]

Where [5] appears, read: 10 mg/kg intraperitoneally, vitreous protein 24 h after intravitreal thrombin.

As for `COC1COCCC1N[C@@H]1CC[C@@](C(=O)N2CCc3ncc(C(F)(F)F)cc3C2)(C(C)C)C1.O=C(O)CCC(=O)O` (stereo partly drawn) [Compound A], the “Retinal vascular permeability suppressing rate (%)” value in assay [1] (6 mg/kg orally at 30 min before, 6 and 20 h after intravitreal thrombin, vitreous protein at 24 h) was determined as 15%; in assay [2] (10 mg/kg orally at 30 min before, 6 and 20 h after intravitreal TNFα, vitreous protein at 24 h), 63%; in assay [2] (100 mg/kg orally at 30 min before, 6 and 20 h after intravitreal TNFα, vitreous protein at 24 h) it was 88%; in assay [3], 61%. For the same compound, the “Suppressing rate (%) of incidence of choroidal neovascularization” value in assay [4] (2 mg/kg orally twice a day for 7 days) is reported as 32.8%; in assay [4] (6 mg/kg orally twice a day for 7 days), 39.5%; in assay [4] (20 mg/kg orally twice a day for 7 days), 52.9%; in assay [4] (60 mg/kg orally twice a day for 7 days), 62.7%.

`C[N+](C)(Cc1ccc(NC(=O)c2ccc(Cl)c(Cl)c2)cc1)C1CCOCC1.[Cl-]` [Compound B, N-[4-(3,4-dichlorobenzamido)benzyl]-N,N-dimethyl-N-(tetrahydropyran-4-yl)ammonium chloride]: the “Retinal vascular permeability suppressing rate (%)” value in assay [1] (setting [5]) is given as −13%.

Consider `O=C(/C=C/c1cc(F)cc(F)c1)N1CCC([C@@H](CO)N2CCC(c3c[nH]c4ncccc34)CC2)CC1` [Compound C, 2(S)-[1-[3-(3,5-difluorophenyl)-2(E)-propenoyl]piperidin-4-yl]-2-[4-(1H-pyrrolo[2,3-b]pyridin-3-yl)piperidin-1-yl]ethanol], for which the “Retinal vascular permeability suppressing rate (%)” value in assay [1] (setting [5]) was −1%.

In the case of `Cc1ccc2c(c1)C1(CCN(CCc3nc(-c4ccccc4)oc3C)CC1)OC(=O)N2` [RS-504393, reference compound], the “Retinal vascular permeability suppressing rate (%)” value is 18% in assay [2] (3 mg/kg orally, vitreous protein 24 h after intravitreal TNFα) and −13% in assay [2] (30 mg/kg orally, vitreous protein 24 h after intravitreal TNFα).
